The values that follow come from patent US12397041B2, “Vasoactive intestinal peptide release from microparticles” (UNIVERSITY OF PITTSBURGH—OF THE COMMONWEALTH SYSTEM OF …, priority 2009, dated 2025).

Entries after “also recorded” stand apart in the source; their conditions may differ. Ends that are not written are not given here.

The subject of test [1] is FoxP3, IL-10, RANKL, CCL-22 mRNA in periodontal tissues. The test is described as follows: Real-time PCR of markers in periodontal tissues of diseased mice. In kind it is in vivo, mouse. The note with it: systemic injections at days −1, 7, 14, 21, 28. As for the experimental part: To verify that Tregs are recruited toward microparticles that sustain release of CCL-22, formulations were administered into the periodontium of diseased mice. Briefly, mice were orally exposed to the periodontal pathogen A. actinomycetemcomitans (Aar) on day 0, and also received CCL-22 microparticles (CCL-22MPs) or blank (empty) microparticles (BlankMPs) in their periodontal pockets. Specifically, mice received microparticle injections at day −1, 10 and 20, mice treated with VIP injections received systemic injections at days −1, 7, 14, 21, 28. Untreated mice served as negative controls. At day 30, all mice were sacrificed and maxilla's were resected. […] FIG. 22A. […] Figure BIB. […] FIG. 22C.
In this experiment, artificial antigen presenting cells providing a CCL-22 controlled release formulation were injected into palatal gingival tissue of right molars of mice (n=3) at the times of −1, 10 and 20 days of periodontal infection. At 30 days, total RNA was extracted from periodontal tissues as previously described and analyzed for regulatory T-cell and periodontal disease factor. […]
Real-Time PCR Analysis. […] RealTime-PCR quantitative mRNA analyses will be done in a MiniOpticon system (BioRad, Hercules, CA), using SybrGreen Master Mix (Invitrogen), 100 nM specific primers, and 2.5 ng of cDNA in each reaction. […]
(In general: Real-time PCR tracks product formation cycle by cycle.)

In test [2] the test system is mice infected with A. actinomycetemcomitans (periodontitis). Kind of test: Mouse periodontitis model with CCL-22 microparticles / systemic VIP, alveolar bone resorption and Treg recruitment. In kind it is in vivo.
Protocol: To this end, B6 mice (n=6) were infected orally with the periodontal pathogen A. actinomycetemcomitans (Aa) and treated with microparticles containing CCL-22 (CCL-22MPs) or empty microparticles (BlankMPs) according to the schedule outlined above. Additionally vasoactive intestinal peptide (VIP) was administered intraperitoneally. Mice receiving only PBS and the thickener carboxymethyl cellulose served as controls (Untreated). Experimental treatments were administered in the periodontal pocket of the right maxilla while left maxillae were used as internal negative controls in each mouse. Alveolar bone loss was quantified as the area between the cementoenamel junction (CEJ) and the alveolar bone crest (ABC) FIG. 23, CEJ and FIG. 23A, ABC). Alveolar bone levels are shown on the left (internal control, FIG. 23A LEFT) and right (BlankMP treated, FIG. 23A RIGHT) maxilla.
The next test has as its system FoxP3+CD4+ T-cells. The test is described as follows: Chemotaxis of CD4+ T-cells through transwells toward treated DCs, FoxP3+ by flow cytometry. In kind it is cell-based, mouse. The note with it: LPS. As for the experimental part:
(§1) In the first two experiments, both GM-CSF and IL-4 were added to DC media (modified RPMI 1640) of bone marrow cell cultures during media changes on Days 0, 3 and 6. In the third experiment, the IL-4 was purposely omitted and GM-CSF was added in 5× concentration. On Day 6, CD11c+ DC cells were isolated using MACS cell sorting beads and plated in a 24-well plate at 100,000 cells/well. Five different groups of four wells each were analyzed and received treatment. […] A mature DC control group received only LPS. Three different groups were matured with LPS and received different concentrations of either soluble VIP or releasates of VIP microparticles or blank microparticles (using the 12.6 kDa polymer).
Preliminary Protocol: Soluble VIP was added to the third group in concentration of 2.5×10^−8 M. Ten milligrams of microparticles were first incubated for 4-6 hours in media and 250 μL of releasates were added to each well. […]
For chemotaxis studies, in the first two experiments, both GM-CSF and IL-4 were added to DC media (modified RPMI 1640) of bone marrow cell cultures during media changes on Days 0, 3 and 6. […] Five different groups of four wells each were analyzed and received treatment. […]
CD4+ T-cells were isolated from the spleen and lymph nodes of a mouse using Dynal beads following the lab protocol. […] T Cells that flowed through were analyzed for FoxP3+ expression using flow cytometry.
Background: A flow cytometer gives signals particle by particle.

Another test concerns dendritic cells. Kind of test: CCL22 production by dendritic cells (ELISA). In kind it is cell-based, murine. The note with it: LPS-matured DCs, soluble VIP. As for the experimental part: Dendritic cells were isolated from murine bone marrow and cultured following standard procedures.
as §1
Dose Response Protocol: Soluble VIP was added in concentrations of 10^−6 M, 10^−8 M, and 10^−9 M to both immature DC groups and DCs matured with LPS. Twelve different groups were matured with LPS and received different concentrations of either blank porous, blank nonporous, VIP porous, or VIP nonporous microparticles (of the 12.6 kDa polymer). Microparticles were added in concentrations of either 2.77 mg/mL, 1.39 mg/mL, and 0.277 mg/mL. In a second DC culture, the low concentration of microparticles was reduced to 0.0556 mg/mL. […]
(In general: ELISA stands for enzyme-linked immunosorbent assay.)

The next test deals with CD4+ T cells (CCR4). The test is described as follows: In vitro transwell migration assay toward CCL22. In kind it is cell-based, murine. The note with it: activated vs naïve CD4+ T cells. From the text:
(* p<0.05, one-tailed Students ‘t’ test).
Simultaneously, the ability of CCL22 to attract murine T cells was examined. Expression of chemokine receptors for CCL22 (i.e., for example, the CCR4 receptor) are known to control the ability of cells to respond to CCL22 gradients. Moreover, there is evidence that only activated T cells express the CCR4 receptor. Baatar et al., Journal of Immunology 178: 4891-4900 (2007); Lim et al., Journal of Immunology 177:840-851 (2006); and Lee et al., Journal of Experimental Medicine 201:1037-1044 (2005); and FIG. 18A. […] FIG. 18B.

As for “vasoactive intestinal peptide (HSDAVFTDNYTRLRKQMAVKKYLNSILN; ends and bridges not checked; UniProt P01282 125-152, looked up) [VIP, neuropeptide of twenty-eight (28) amino acids in length originally isolated from the intestine]”, in test [1], the “endogenous CCL-22 production” value was “induced endogenous production of CCL-22”. Further, the “alveolar bone resorption / bone loss” value in test [2] (MPs at day −1, 10, 20, VIP systemic IP, day 30, vs BlankMPs / negative controls) is given as “significantly less alveolar bone resorption than BlankMPs”. Also, the “Treg (FoxP3+ cell) recruitment to gingival / periodontal tissues” value in test [2] (mouse, in vivo) is recorded as “effectively induce Treg migration to periodontal tissues”. Also, the “percent of FoxP3+ cells recruited by DCs” value is given as “recruited a higher percentage of FoxP3+ cells than DCs that only received LPS or releasates from blank particles” in the test on FoxP3+CD4+ T-cells (DC precursors cultured with IL-4 and GM-CSF, soluble VIP 2.5×10^−8 M or releasates); “recruited the same percentage of FoxP3+ cells” in the test on FoxP3+CD4+ T-cells (absence of IL-4, 5× GM-CSF). Besides, the “CCL-22 production relative to mature DC control group” value in the test on dendritic cells is on record as “similar”.

B1: CCL22: chemokine that binds the CCR4 receptor, involved in migration of regulatory T-cells (protein, UniProt O00626 25-93, looked up)
C-C motif chemokine 22: GPYGANMEDSVCCRDYVRYRLPLRVVKHFYWTSDSCPRPGVVLLTFRDKEICADPRVPWVKMILNKLSQ
On to B1, for which, in the test with CD4+ T cells (CCR4), the “T cell migration towards a CCL22 gradient” value is “significantly greater migration of activated regulatory and effector CD4+ T cells; also recorded: activated T cells (both regulatory and effector cell populations), but not naïve T cells, migrated towards a CCL22 gradient”.
